Reference: publication PMC8585690 (Toxicology, 2021)
Values joined by “and” are separate entries in the source; they are usually repeats but may differ in a detail not shown here. Identical values can stand only once. Like-named read-outs stand apart in the source and are kept apart here. Values belong to the compound of their own block, whether it stands above or below them.

What was measured:
Hepatocyte = conditions: metabolizing enzymes and conjugation pathways; cited from earlier work
[1] = Literature-based in vivo clinical clearance, AUC and bioavailability; conditions: for mean oral clearance of available literature values: mean across studies, no further adjustment; for bioavailability: in vivo
plasma protein = conditions: cited from earlier work; for plasma free fraction, previously reported measurement: ref Sakolish et al. 2021; for Fub, plasma: representative range of literature-reported values, ref see Methods
[2] = cited from earlier work; for estimated clearance: ref Kadam et al. 2013
[3] = test system: primary human hepatocytes or human iPSC-derived hepatocytes; conditions: for underprediction of clearance by LAMPS compared to in vivo: Day 1 (24 hr) clearance vs in vivo intrinsic clearance
[4] = test system: primary human hepatocytes or human iPSC-derived hepatocytes; conditions: as previously reported; ref Sakolish et al. 2021; cited from earlier work
[5] = test system: primary human hepatocytes or human iPSC-derived hepatocytes; test: Hepatic clearance in monolayer culture; type: in vitro ADME; conditions: 2D culture; in most cases primary cells exhibited greater clearance
[6] = Plasma protein binding / plasma free fraction; type: in vitro ADME; conditions: human
[7] = test system: microphysiological system; conditions: ref Marin et al. (2019); cited from earlier work

SMILES: Cn1c(=O)c2c(ncn2C)n(C)c1=O [Caffeine]
Hepatocyte metabolism (Hepatocyte): CYPA2, xanthine oxidase, or N-acetyltransferase 2
oral clearance converted using 70 kg body weight ([1]; human, from ref Lelo et al. 1986): 8.7 L/h
plasma free fraction (plasma protein; equilibrium dialysis, ref Lelo et al. 1986): 0.68
plasma free fraction, previously reported measurement (plasma protein): 0.515
Plasma protein binding, % free (plasma protein; summary of Table 1 values): > 50 % free
oral clearance ([2]; human, ref Lelo et al. 1986): 2.07 mL/min/kg
in vitro intrinsic clearance as a function of time ([3]; 10-day experimental period, all four model systems (2D and 3D, primary and iPSC-derived hepatocytes)): decline in clearance was also observed
underprediction of clearance by LAMPS compared to in vivo [3]: < 5 fold

mean oral clearance of available literature values ([1]; human, oral): 3.02 L/h
mean oral clearance adjusted for absorption ([1]; human, oral, mean of all available values, adjusted for incomplete absorption): 2.51 L/h
oral clearance converted using 70 kg body weight ([1]; human, from ref Eckland and Danhof 2000): 2.66 L/h and 3.7 L/h and 3.35 L/h
underprediction of clearance by LAMPS compared to in vivo [3]: < 5 fold
SMILES: CCc1ccc(CCOc2ccc(CC3SC(=O)NC3=O)cc2)nc1 (stereo not shown) [Pioglitazone]
Hepatocyte metabolism (Hepatocyte): CYP2C8, CYP3A4, and conjugation with sulfate or glucuronic acid
plasma free fraction (plasma protein; ref Eckland and Danhof 2000): < 0.03
plasma free fraction, previously reported measurement (plasma protein): 0.0441
Fub, plasma (plasma protein): 0.008-0.04
estimated clearance ([2]; "wild type" individuals): 2.12 L/h
estimated clearance ([2]; CYP2C8*3 carrier): 3.21 L/h
oral clearance ([2]; human, ref Eckland and Danhof 2000): 0.633 mL/min/kg and 0.882 mL/min/kg and 0.797 mL/min/kg
absorption ([2]; ref Eckland and Danhof 2000): 83%
daily AUC ([2]; repeat dose, ref Budde et al. 2003): 14,565 ug-hr/l
AUC ([2]; single dose of 45 mg, ref Budde et al. 2003): 17,387 ug-hr/l

bioavailability ([1]; human, oral, 8 mg): 98%
mean oral clearance of available literature values ([1]; human, oral): 2.85 L/h
SMILES: CN(CCOc1ccc(CC2SC(=O)NC2=O)cc1)c1ccccn1 (stereo not shown) [Rosiglitazone]
Hepatocyte metabolism (Hepatocyte): CYP2C8, CYP2C9, N-demethylation, and conjugation with sulfate or glucuronic acid
free fraction (plasma protein; by ultrafiltration, ref Chapelsky et al. 2003): 0.0016
plasma free fraction, previously reported measurement (plasma protein): 0.0038
Fub, plasma (plasma protein): 0.0016-0.036
oral clearance ([2]; human, ref Chapelsky et al. 2003): 3.07 L/h
AUC ([2]; i.v. dose of 2 mg, ref Cox et al. 2000): 744 ng·h/mL
AUC ([2]; oral dose of 8 mg, ref Cox et al. 2000): 2,900 ng-hr/ml and 2,930 ng-hr/ml
parent compound in feces ([2]; radioactivity detected in feces, ref Cox et al. 2000): no parent compound was detected

SMILES: CC(C)(C)c1ccc(C(O)CCCN2CCC(C(O)(c3ccccc3)c3ccccc3)CC2)cc1 (stereo not shown) [Terfenadine]
free fraction (plasma protein; by ultrafiltration, ref Awni et al. 1997): 0.003
plasma free fraction, previously reported measurement (plasma protein): 0.0219
Fub, plasma (plasma protein): 0.003-0.022
free fraction (plasma protein; source cited was a review, ref McTavish et al. 1990): 0.03
AUC ([2]; 60 mg dose, ref Bergstrom et al. 1997): 24.6 ng·h/mL
AUC ([2]; 120 mg dose, ref Stern et al. 1998): 20.14 ng·h/mL

clearance in primary cells versus iPSC-derived hepatocytes [5]: the opposite was true
CL/F adjusted for oral absorption ([1]; 11.43*0.68, from ref Jorga et al. 1998): 7.8 L/h
bioavailability ([1]; human, oral): 62%
SMILES: Cc1ccc(C(=O)c2cc(O)c(O)c([N+](=O)[O-])c2)cc1 [Tolcapone]
Hepatocyte metabolism (Hepatocyte): Conjugation with glucuronic acid
toxicity indicated by lactate dehydrogenase (LDH) and TNF-alpha release [4]: most toxic
unbound fraction (plasma protein; no source cited, ref Jorga et al. 1998): < 0.001
bound (plasma protein; ref Jorga et al. 1998): > 99.9%
plasma free fraction, previously reported measurement (plasma protein): 0.002
Fub, plasma (plasma protein): <0.001-0.029
i.v. clearance ([2]; ref Jorga et al. 1998): 7.1 L/h
oral clearance ([2]; ref Jorga et al. 1998): 11.43 L/h

fraction unbound [6]: 0.017
oral clearance converted to ([1]; from ref Loi et al. 1997): 33.5 L/h
oral clearance converted to ([1]; from ref Loi et al. 1999): 29.8 L/h and 30 L/h and 36 L/h
mean oral clearance of available literature values ([1]; human, oral): 36.8 L/h
SMILES: Cc1c(C)c2c(c(C)c1O)CCC(C)(COc1ccc(CC3SC(=O)NC3=O)cc1)O2 (stereo not shown) [Troglitazone]
Hepatocyte metabolism (Hepatocyte): CYP3A4, and conjugation with sulfate or glucuronic acid
mean unbound fraction (plasma protein; by ultrafiltration, non-detects (one-third of subjects) not included, ref Ott et al. 1998): 0.026
plasma free fraction, previously reported measurement (plasma protein): 0.008
Fub, plasma (plasma protein): 0.0009-0.017
AUC ([2]; oral dose of 400 mg, ref Ott et al. 1998): 7300 ng·h/mL
oral clearance ([2]; ref Loi et al. 1997): 33.5 L/h
oral clearance ([2]; three values, ref Loi et al. 1999): 30 L/h and 36.1 L/h and 29.8 L/h

bioavailability ([1]; human, oral, 200 mg equivalent): > 100%
SMILES: N[C@@H]1[C@H]2CN(c3nc4c(cc3F)c(=O)c(C(=O)O)cn4-c3ccc(F)cc3F)C[C@@H]12 [Trovafloxacin]
Hepatocyte metabolism (Hepatocyte): N-Acetylation, and conjugation with glucuronic acid
toxicity indicated by lactate dehydrogenase (LDH) and TNF-alpha release [4]: most toxic
free fraction in serum (plasma protein; by equilibrium dialysis, ref Teng et al. 1995, Teng et al. 1996): 0.3 and 0.238
AUC ([2]; iv, 200 mg equivalent, ref Vincent et al. 1998): 22000 ng·h/mL
AUC ([2]; oral, 200 mg equivalent, ref Vincent et al. 1998): 32200 ng·h/mL

SMILES: CC(=O)Nc1ccc(O)cc1 [acetaminophen]
half-life in the microphysiological system as compared to in vivo [7]: 6 fold
